Our source for the IC50 values is patent US20260070945A1, “MACROCYCLIC IMMUNOMODULATORS” (Bristol-Myers Squibb Company, priority 2022, published 2026).

Where a SMILES comes first, the peptide text is derived from it. Bridges are numbered along the chain shown (N, C = ends). [ ]: non-standard residue; d: D form. The star is where a group is joined. Phe(4-COOH) = N[C@@H](Cc1ccc(C(=O)O)cc1)C(=O)O; Bip = N[C@@H](Cc1ccc(-c2ccccc2)cc1)C(=O)O; Phe(3-Me) = Cc1cccc(C[C@H](N)C(=O)O)c1; 3Pal = N[C@@H](Cc1cccnc1)C(=O)O; 4Pal = N[C@@H](Cc1ccncc1)C(=O)O; Cha = N[C@@H](CC1CCCCC1)C(=O)O; Carboxymethyl = O=C(O)C*; NMeA = CN[C@@H](C)C(=O)O; Orn = NCCC[C@H](N)C(=O)O; Aun = NCCCCCCCCCCC(=O)O; Dab = NCC[C@H](N)C(=O)O

This test deals with T1, PD-1/PD-L1 interaction (PE-labeled human PD-L1-Ig binding to Jurkat cell line over-expressing human PD-1) (Homo sapiens, UniProt Q15116).
T1 construct: expressed in transfected cells; host or cells: Jurkat
T1 sequence (Q15116 25-288): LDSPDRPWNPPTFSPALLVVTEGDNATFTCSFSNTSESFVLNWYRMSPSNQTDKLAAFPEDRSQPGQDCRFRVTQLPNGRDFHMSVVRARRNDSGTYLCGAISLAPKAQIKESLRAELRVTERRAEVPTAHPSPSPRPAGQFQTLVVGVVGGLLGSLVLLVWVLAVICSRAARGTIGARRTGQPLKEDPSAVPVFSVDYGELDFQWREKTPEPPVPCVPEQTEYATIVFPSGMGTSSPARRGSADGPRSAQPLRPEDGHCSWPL
The experiment in a line: Jurkat-PD-1 Cell Binding High-Content Screening Assay (CBA). To be noted: Jurkat-hPD-1 cells, PE-labeled PD-L1-Ig 20 nM final; read-out: Jurkat HPD1 PDL1 IC50. The method in brief:
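Jurkat-hPD-1 cells (8×10^3/well) in DMEM with 10% fetal calf serum were preincubated with compound for 2 h at 37 °C. PE-labeled PD-L1-Ig was then added at 20 nM final for 1 h. Cells were fixed in paraformaldehyde with Hoechst 33342, washed and imaged by high-content imaging.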
Turning to `Cc1cccc(C[C@@H]2NC(=O)[C@H](CC(=O)O)NC(=O)[C@H](Cc3ccc(O)cc3)NC(=O)[C@H](CC(N)=O)NC(=O)CSC[C@@H](C(=O)N[C@@H](CCN)C(=O)NCCCCCCCCCCC(=O)O)NC(=O)[C@H]([C@@H](C)O)NC(=O)[C@H](C(C)C)NC(=O)[C@H](CC3CCCCC3)NC(=O)[C@H](CCN)NC(=O)[C@@H](CC(C)C)NC(=O)[C@H](C)N(C)C(=O)[C@H](Cc3ccc(O)cc3)NC(=O)[C@H](Cc3ccc(-c4ccccc4)cc3)NC(=O)[C@H](C(C)C)NC2=O)c1` [Example 1321] ({CH2CO}-NYD[Phe(3-Me)]V[Bip]Y[NMeA][dL][Dab][Cha]VTC[Dab][Aun]-OH; thioether N-14), the IC50 – broadly, the concentration that inhibits the measured activity by half – was 0.142 µM.

For the molecule `Cc1cccc(C[C@@H]2NC(=O)[C@H](CC(=O)O)NC(=O)[C@H](Cc3ccc(OCC(=O)O)cc3)NC(=O)[C@H](CC(N)=O)NC(=O)CSC[C@@H](C(=O)N[C@@H](CCN)C(=O)NCCCCCCCCCCC(=O)O)NC(=O)[C@H]([C@@H](C)O)NC(=O)[C@H](C(C)C)NC(=O)[C@H](CC3CCCCC3)NC(=O)[C@H](CCN)NC(=O)[C@@H](CC(C)C)NC(=O)[C@H](C)N(C)C(=O)[C@H](Cc3ccc(O)cc3)NC(=O)[C@H](Cc3ccc(-c4ccccc4)cc3)NC(=O)[C@H](C(C)C)NC2=O)c1` [Example 1322] ({CH2CO}-NY(Carboxymethyl)D[Phe(3-Me)]V[Bip]Y[NMeA][dL][Dab][Cha]VTC[Dab][Aun]-OH; thioether N-14), the half-inhibitory concentration (IC50) is 0.0197 µM. Turning to `Cc1cccc(C[C@@H]2NC(=O)[C@H](CC(=O)O)NC(=O)[C@H](Cc3cccnc3)NC(=O)[C@H](CC(N)=O)NC(=O)CSC[C@@H](C(=O)N[C@@H](CCN)C(=O)NCCCCCCCCCCC(=O)O)NC(=O)[C@H]([C@@H](C)O)NC(=O)[C@H](C(C)C)NC(=O)[C@H](CC3CCCCC3)NC(=O)[C@H](CCN)NC(=O)[C@@H](CC(C)C)NC(=O)[C@H](C)N(C)C(=O)[C@H](Cc3ccc(O)cc3)NC(=O)[C@H](Cc3ccc(-c4ccccc4)cc3)NC(=O)[C@H](C(C)C)NC2=O)c1` [Example 1323] ({CH2CO}-N[3Pal]D[Phe(3-Me)]V[Bip]Y[NMeA][dL][Dab][Cha]VTC[Dab][Aun]-OH; thioether N-14), the IC50 turned out to be 0.0994 µM.

For the molecule `CC(C)C[C@H]1NC(=O)[C@H](C)N(C)C(=O)[C@H](Cc2ccc(O)cc2)NC(=O)[C@H](Cc2ccc(-c3ccccc3)cc2)NC(=O)[C@H](C(C)C)NC(=O)[C@H](Cc2c[nH]c3ccccc23)NC(=O)[C@H](CC(=O)O)NC(=O)[C@H](Cc2ccc(OCC(=O)O)cc2)NC(=O)[C@H](Cc2ccncc2)NC(=O)CSC[C@@H](C(=O)N[C@@H](CCN)C(=O)NCCCCCCCCCCC(=O)O)NC(=O)[C@H]([C@@H](C)O)NC(=O)[C@H](C(C)C)NC(=O)[C@H](CC2CCCCC2)NC(=O)[C@H](CCN)NC1=O` [Example 1324] ({CH2CO}-[4Pal]Y(Carboxymethyl)DWV[Bip]Y[NMeA][dL][Dab][Cha]VTC[Dab][Aun]-OH; thioether N-14), the IC50 was found to be 0.0342 µM.

Take `CC(C)C[C@@H]1NC(=O)[C@H](Cc2c[nH]c3ccccc23)NC(=O)[C@H](CC(=O)O)NC(=O)[C@H](Cc2ccncc2)NC(=O)[C@H](Cc2ccc(OCC(=O)O)cc2)NC(=O)CSC[C@@H](C(=O)N[C@@H](CCN)C(=O)NCCCCCCCCCCC(=O)O)NC(=O)[C@H]([C@@H](C)O)NC(=O)[C@H](C(C)C)NC(=O)[C@H](CC2CCCCC2)NC(=O)[C@H](CCN)NC(=O)[C@@H](CC(C)C)NC(=O)[C@H](C)N(C)C(=O)[C@H](Cc2ccc(O)cc2)NC(=O)[C@H](Cc2ccc(-c3ccccc3)cc2)NC1=O` [Example 1325] ({CH2CO}-Y(Carboxymethyl)[4Pal]DWL[Bip]Y[NMeA][dL][Dab][Cha]VTC[Dab][Aun]-OH; thioether N-14): the IC50 was 0.0281 µM. Turning to `CC(C)C[C@@H]1NC(=O)[C@H](Cc2c[nH]c3ccccc23)NC(=O)[C@H](CC(=O)O)NC(=O)[C@H](Cc2ccc(C(=O)O)cc2)NC(=O)[C@H](Cc2ccc(OCC(=O)O)cc2)NC(=O)CSC[C@@H](C(=O)N[C@@H](CCN)C(=O)NCCCCCCCCCCC(=O)O)NC(=O)[C@H]([C@@H](C)O)NC(=O)[C@H](C(C)C)NC(=O)[C@H](CC2CCCCC2)NC(=O)[C@H](CCN)NC(=O)[C@@H](CC(C)C)NC(=O)[C@H](C)N(C)C(=O)[C@H](C(C)C)NC(=O)[C@H](Cc2ccc(-c3ccccc3)cc2)NC1=O` [Example 1326] ({CH2CO}-Y(Carboxymethyl)[Phe(4-COOH)]DWL[Bip]V[NMeA][dL][Dab][Cha]VTC[Dab][Aun]-OH; thioether N-14), the half-inhibitory concentration (IC50) stood at 0.0198 µM. As to `CC(C)C[C@@H]1NC(=O)[C@H](Cc2c[nH]c3ccccc23)NC(=O)[C@H](CC(=O)O)NC(=O)[C@H](Cc2ccc(C(=O)O)cc2)NC(=O)[C@H](Cc2ccc(OCC(=O)O)cc2)NC(=O)CSC[C@@H](C(=O)N[C@@H](CCCN)C(=O)NCCCCCCCCCCC(=O)O)NC(=O)[C@H](CCC(=O)O)NC(=O)[C@H](C(C)C)NC(=O)[C@H](CC2CCCCC2)NC(=O)[C@H](CCN)NC(=O)[C@@H](CC(C)C)NC(=O)[C@H](C)N(C)C(=O)[C@H](C(C)C)NC(=O)[C@H](Cc2ccc(-c3ccccc3)cc2)NC1=O` [Example 1328] ({CH2CO}-Y(Carboxymethyl)[Phe(4-COOH)]DWL[Bip]V[NMeA][dL][Dab][Cha]VEC[Orn][Aun]-OH; thioether N-14), the IC50 was 0.024 µM. Consider `CC(C)C[C@@H]1NC(=O)[C@H](Cc2c[nH]c3ccccc23)NC(=O)[C@H](CC(=O)O)NC(=O)[C@H](Cc2ccncc2)NC(=O)[C@H](Cc2ccc(OCC(=O)O)cc2)NC(=O)CSC[C@@H](C(=O)N[C@@H](CCN)C(=O)NCCCCCCCCCCC(=O)O)NC(=O)[C@H]([C@@H](C)O)NC(=O)[C@H](C(C)C)NC(=O)[C@H](CC2CCCCC2)NC(=O)[C@H](CCN)NC(=O)[C@@H](CC(C)C)NC(=O)[C@H](C)N(C)C(=O)[C@H](C(C)C)NC(=O)[C@H](Cc2ccc(-c3ccccc3)cc2)NC1=O` [Example 1329] ({CH2CO}-Y(Carboxymethyl)[4Pal]DWL[Bip]V[NMeA][dL][Dab][Cha]VTC[Dab][Aun]-OH; thioether N-14), for which the IC50 is 0.0153 µM. On to `CC(C)C[C@@H]1NC(=O)[C@H](Cc2c[nH]c3ccccc23)NC(=O)[C@H](CC(=O)O)NC(=O)[C@H](Cc2ccncc2)NC(=O)[C@H](Cc2ccc(OCC(=O)O)cc2)NC(=O)CSC[C@@H](C(=O)N[C@@H](CCN)C(=O)NCCCCCCCCCCC(=O)O)NC(=O)[C@H](CCC(=O)O)NC(=O)[C@H](C(C)C)NC(=O)[C@H](CC2CCCCC2)NC(=O)[C@H](CCN)NC(=O)[C@@H](CC(C)C)NC(=O)[C@H](C)N(C)C(=O)[C@H](C(C)C)NC(=O)[C@H](Cc2ccc(-c3ccccc3)cc2)NC1=O` [Example 1330] ({CH2CO}-Y(Carboxymethyl)[4Pal]DWL[Bip]V[NMeA][dL][Dab][Cha]VEC[Dab][Aun]-OH; thioether N-14), for which the IC50 came to 0.0141 µM.

As to `CC(C)C[C@@H]1NC(=O)[C@H](Cc2c[nH]c3ccccc23)NC(=O)[C@H](CC(=O)O)NC(=O)[C@H](Cc2ccncc2)NC(=O)[C@H](Cc2ccc(OCC(=O)O)cc2)NC(=O)CSC[C@@H](C(=O)N[C@@H](CCCN)C(=O)NCCCCCCCCCCC(=O)O)NC(=O)[C@H]([C@@H](C)O)NC(=O)[C@H](C(C)C)NC(=O)[C@H](CC2CCCCC2)NC(=O)[C@H](CCN)NC(=O)[C@@H](CC(C)C)NC(=O)[C@H](C)N(C)C(=O)[C@H](C(C)C)NC(=O)[C@H](Cc2ccc(-c3ccccc3)cc2)NC1=O` [Example 1331] ({CH2CO}-Y(Carboxymethyl)[4Pal]DWL[Bip]V[NMeA][dL][Dab][Cha]VTC[Orn][Aun]-OH; thioether N-14), the IC50 amounted to 0.0123 µM. Under `CC(C)C[C@@H]1NC(=O)[C@H](Cc2c[nH]c3ccccc23)NC(=O)[C@H](CC(=O)O)NC(=O)[C@H](Cc2ccncc2)NC(=O)[C@H](Cc2ccc(OCC(=O)O)cc2)NC(=O)CSC[C@@H](C(=O)N[C@@H](CCCN)C(=O)NCCCCCCCCCCC(=O)O)NC(=O)[C@H](CCC(=O)O)NC(=O)[C@H](C(C)C)NC(=O)[C@H](CC2CCCCC2)NC(=O)[C@H](CCN)NC(=O)[C@@H](CC(C)C)NC(=O)[C@H](C)N(C)C(=O)[C@H](C(C)C)NC(=O)[C@H](Cc2ccc(-c3ccccc3)cc2)NC1=O` [Example 1332] ({CH2CO}-Y(Carboxymethyl)[4Pal]DWL[Bip]V[NMeA][dL][Dab][Cha]VEC[Orn][Aun]-OH; thioether N-14) stands 0.0145 µM.

Regarding `CC(C)C[C@@H]1NC(=O)[C@H](Cc2c[nH]c3ccccc23)NC(=O)[C@H](CC(=O)O)NC(=O)[C@H](Cc2ccc(OCC(=O)O)cc2)NC(=O)[C@H](Cc2ccccc2)NC(=O)CSC[C@@H](C(=O)N[C@@H](CCN)C(=O)NCCCCCCCCCCC(=O)O)NC(=O)[C@H]([C@@H](C)O)NC(=O)[C@H](C(C)C)NC(=O)[C@H](CC(C)C)NC(=O)[C@H](CC(N)=O)NC(=O)[C@@H](CC(C)C)NC(=O)[C@H](C)N(C)C(=O)[C@H](C(C)C)NC(=O)[C@H](Cc2ccc(-c3ccccc3)cc2)NC1=O` [Example 1333] ({CH2CO}-FY(Carboxymethyl)DWL[Bip]V[NMeA][dL]NLVTC[Dab][Aun]-OH; thioether N-14), the IC50 was determined as 0.0673 µM. For `CC(C)C[C@@H]1NC(=O)[C@H](Cc2c[nH]c3ccccc23)NC(=O)[C@H](CC(=O)O)NC(=O)[C@H](Cc2ccc(OCC(=O)O)cc2)NC(=O)[C@H](Cc2ccccc2)NC(=O)CSC[C@@H](C(=O)N[C@@H](CCN)C(=O)NCCCCCCCCCCC(=O)O)NC(=O)[C@H](CCC(=O)O)NC(=O)[C@H](C(C)C)NC(=O)[C@H](CC(C)C)NC(=O)[C@H](CC(N)=O)NC(=O)[C@@H](CC(C)C)NC(=O)[C@H](C)N(C)C(=O)[C@H](C(C)C)NC(=O)[C@H](Cc2ccc(-c3ccccc3)cc2)NC1=O` [Example 1334] ({CH2CO}-FY(Carboxymethyl)DWL[Bip]V[NMeA][dL]NLVEC[Dab][Aun]-OH; thioether N-14), the IC50 was 0.117 µM.
